Measurements: the supplement of paper PMC10627819

Tests used:
S. aureus DSM 20231 [1] = assay: Bliss interaction score (quartile over a dose matrix) (fitness difference); higher = more antagonism (negative = synergy)
How it was run: (§1)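 The Bliss score takes observed fitness and subtracts the expected fitness, calculated as a product of single-drug fitness values. Those single-drug values were inferred from the combination data. Fitness is OD595 at entry into stationary phase divided by the plate's robust no-drug mean, capped at 1, and the score is summarised by quartiles across technical, biological and donor/recipient replicates.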

B. subtilis 168 = assay: as above
How it was run: as §1

S. pneumoniae D39V [2] = assay: as above
How it was run: as §1

S. aureus Newman [3] = assay: as above
How it was run: as §1

S. aureus DSM 20231 [4] = assay: fitness (endpoint OD595 vs no drug) (fraction); higher = more growth
How it was run: (§2)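 Bacterial growth was followed in 384-well plates seeded at OD595 0.01, with 30 µl per well, or 55 µl for S. pneumoniae, in TSB, LB Lennox or CY at 37 °C. OD595 was read every 30 min for 14 h, and each reading had the first reading subtracted as background. Fitness is the background-corrected optical density at entry into stationary phase divided by the robust mean of the no-drug control wells. This ratio is capped at 1.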

S. pneumoniae D39V [5] = assay: as above
How it was run: as §2

S. aureus Newman [6] = assay: as above
How it was run: as §2
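Throughout, for Bliss interaction score (quartile over a dose matrix): first quartile when negative (synergy) and third quartile when positive (antagonism).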

CC1(C)S[C@@H]2[C@H](NC(=O)[C@H](N)c3ccc(O)cc3)C(=O)N2[C@H]1C(=O)O [Amoxicillin] + O=C(O[C@@H]1Cc2c(O)cc(O)cc2O[C@@H]1c1cc(O)c(O)c(O)c1)c1cc(O)c(O)c(O)c1 [EGCG]
Details | Bliss interaction score
B. subtilis 168 | 0.0413
S. aureus DSM 20231 [1] | 0.0606
S. aureus Newman [3] | 0.0679
S. pneumoniae D39V [2] | -0.0544

fitness
Details | partner 12.5 µg/mL | partner 25 µg/mL | partner 50 µg/mL
S. aureus DSM 20231 [4], first compound 0.0625 µg/mL | 0.528 | 0.516 | 0.513
S. aureus DSM 20231 [4], first compound 0.125 µg/mL | 0.363 | 0.411 | 0.376
S. aureus DSM 20231 [4], first compound 0.25 µg/mL | 0.171 | 0.0387 | 0.108
S. aureus DSM 20231 [4], first compound 0.5 µg/mL | 0.0001 | 0.0081 | 0
S. aureus Newman [6], first compound 0.0625 µg/mL | 0.751 | 0.714 | 0.638
S. aureus Newman [6], first compound 0.125 µg/mL | 0.757 | 0.741 | 0.681
S. aureus Newman [6], first compound 0.25 µg/mL | 0.729 | 0.751 | –
S. pneumoniae D39V [5], first compound 0.0008 µg/mL | 0.969 | 0.911 | 0.984
S. pneumoniae D39V [5], first compound 0.0015 µg/mL | 0.92 | 0.922 | –
S. pneumoniae D39V [5], first compound 0.003 µg/mL | 0.851 | 0.912 | 0.894

S. pneumoniae D39V [5], first compound 0.006 µg/mL, one replicate
Details | fitness
partner 12.5 µg/mL | 0.412
partner 25 µg/mL | 0.545
partner 50 µg/mL | 0.601

CO/N=C(\C(=O)N[C@@H]1C(=O)N2C(C(=O)[O-])=C(C[N+]3(C)CCCC3)CS[C@H]12)c1csc(N)n1 [Cefepime] + CC1=C\[C@@H](O)CC(=O)Cc2nc(co2)C(=O)N2CCC=C2C(=O)O[C@H](C(C)C)[C@H](C)/C=C/C(=O)NC\C=C\1 [Virginiamycin M1]
Details | Bliss interaction score
B. subtilis 168 | 0.062
S. aureus DSM 20231 [1] | 0.0738
S. aureus Newman [3] | -0.0566
S. pneumoniae D39V [2] | 0.0257

Details | fitness
S. aureus DSM 20231 [4], first compound 0.125 µg/mL, partner 0.0625 µg/mL | 0.97
S. aureus DSM 20231 [4], first compound 0.125 µg/mL, partner 0.125 µg/mL | 0.932
S. aureus DSM 20231 [4], first compound 0.125 µg/mL, partner 0.25 µg/mL | 0.895
S. aureus DSM 20231 [4], first compound 0.25 µg/mL, partner 0.0625 µg/mL | 0.78
S. aureus DSM 20231 [4], first compound 0.25 µg/mL, partner 0.125 µg/mL | 0.902
S. aureus DSM 20231 [4], first compound 0.25 µg/mL, partner 0.25 µg/mL | 0.862
S. aureus DSM 20231 [4], first compound 0.5 µg/mL, partner 0.0625 µg/mL | 0.832
S. aureus DSM 20231 [4], first compound 0.5 µg/mL, partner 0.125 µg/mL | 0.969
S. aureus DSM 20231 [4], first compound 0.5 µg/mL, partner 0.25 µg/mL | 0.904
S. aureus Newman [6], first compound 0.125 µg/mL, partner 0.0625 µg/mL | 0.936
S. aureus Newman [6], first compound 0.125 µg/mL, partner 0.125 µg/mL | 0.932
S. aureus Newman [6], first compound 0.125 µg/mL, partner 0.25 µg/mL | 0.943
S. aureus Newman [6], first compound 0.25 µg/mL, partner 0.0625 µg/mL | 0.869
S. aureus Newman [6], first compound 0.25 µg/mL, partner 0.125 µg/mL | 0.848
S. aureus Newman [6], first compound 0.25 µg/mL, partner 0.25 µg/mL | 0.863
S. aureus Newman [6], first compound 0.5 µg/mL, partner 0.0625 µg/mL | 0.768
S. aureus Newman [6], first compound 0.5 µg/mL, partner 0.125 µg/mL | 0.792
S. aureus Newman [6], first compound 0.5 µg/mL, partner 0.25 µg/mL | 0.775
S. pneumoniae D39V [5], first compound 0.007 µg/mL, partner 0.5 µg/mL | ≥ 1
S. pneumoniae D39V [5], first compound 0.007 µg/mL, partner 1 µg/mL | ≥ 1
S. pneumoniae D39V [5], first compound 0.007 µg/mL, partner 2 µg/mL | 0.992
S. pneumoniae D39V [5], first compound 0.0078 µg/mL, partner 2 µg/mL | 0.958
S. pneumoniae D39V [5], first compound 0.014 µg/mL, partner 0.5 µg/mL | ≥ 1
S. pneumoniae D39V [5], first compound 0.014 µg/mL, partner 1 µg/mL | ≥ 1
S. pneumoniae D39V [5], first compound 0.014 µg/mL, partner 2 µg/mL | ≥ 1
S. pneumoniae D39V [5], first compound 0.0155 µg/mL, partner 2 µg/mL | 0.946
S. pneumoniae D39V [5], first compound 0.028 µg/mL, partner 0.5 µg/mL | 0.979
S. pneumoniae D39V [5], first compound 0.028 µg/mL, partner 1 µg/mL | 0.956
S. pneumoniae D39V [5], first compound 0.028 µg/mL, partner 2 µg/mL | 0.969
S. pneumoniae D39V [5], first compound 0.031 µg/mL, partner 2 µg/mL | 0.851

fitness, one replicate
Details | first compound 0.0078 µg/mL | first compound 0.0155 µg/mL | first compound 0.031 µg/mL | first compound 0.125 µg/mL | first compound 0.25 µg/mL | first compound 0.5 µg/mL
S. aureus DSM 20231 [4], partner 0.5 µg/mL | – | – | – | 0.887 | 0.892 | 0.866
S. aureus DSM 20231 [4], partner 1 µg/mL | – | – | – | 0.86 | 0.878 | 0.948
S. aureus Newman [6], partner 0.5 µg/mL | – | – | – | 0.865 | 0.819 | 0.732
S. aureus Newman [6], partner 1 µg/mL | – | – | – | 0.873 | 0.916 | 0.768
S. aureus Newman [6], partner 2 µg/mL | – | – | – | 0.888 | 0.798 | 0.706
S. pneumoniae D39V [5], partner 0.15 µg/mL | ≥ 1 | ≥ 1 | ≥ 1 | – | – | –
S. pneumoniae D39V [5], partner 0.3 µg/mL | ≥ 1 | ≥ 1 | 0.963 | – | – | –
S. pneumoniae D39V [5], partner 0.5 µg/mL | ≥ 1 | 0.948 | 0.782 | – | – | –
S. pneumoniae D39V [5], partner 1 µg/mL | 0.958 | 0.962 | 0.686 | – | – | –

CO/N=C(\C(=O)N[C@@H]1C(=O)N2C(C(=O)[O-])=C(C[N+]3(C)CCCC3)CS[C@H]12)c1csc(N)n1 [Cefepime] + CCN(CC)CCOC(=O)c1ccc(N)cc1 [Procaine]
Details | Bliss interaction score
B. subtilis 168 | 0.0389
S. aureus DSM 20231 [1] | -0.0573
S. aureus Newman [3] | -0.0735
S. pneumoniae D39V [2] | 0.0421

fitness
Details | first compound 0.007 µg/mL | first compound 0.014 µg/mL | first compound 0.028 µg/mL | first compound 0.125 µg/mL | first compound 0.25 µg/mL | first compound 0.5 µg/mL
S. aureus DSM 20231 [4], partner 171 µg/mL | – | – | – | 0.95 | 0.896 | 0.921
S. aureus Newman [6], partner 85.5 µg/mL | – | – | – | 0.913 | 0.855 | 0.801
S. aureus Newman [6], partner 171 µg/mL | – | – | – | 0.879 | 0.874 | 0.699
S. aureus Newman [6], partner 342 µg/mL | – | – | – | 0.906 | 0.833 | 0.77
S. pneumoniae D39V [5], partner 85.5 µg/mL | ≥ 1 | ≥ 1 | 0.974 | – | – | –
S. pneumoniae D39V [5], partner 171 µg/mL | ≥ 1 | ≥ 1 | 0.948 | – | – | –
S. pneumoniae D39V [5], partner 342 µg/mL | ≥ 1 | 0.999 | 0.955 | – | – | –

fitness, S. pneumoniae D39V [5], one replicate
Details | first compound 0.0078 µg/mL | first compound 0.0155 µg/mL | first compound 0.031 µg/mL
partner 85.5 µg/mL | ≥ 1 | 0.943 | 0.244
partner 171 µg/mL | ≥ 1 | ≥ 1 | 0.481
partner 342 µg/mL | ≥ 1 | ≥ 1 | 0.635

CO/N=C(\C(=O)N[C@@H]1C(=O)N2C(C(=O)[O-])=C(C[N+]3(C)CCCC3)CS[C@H]12)c1csc(N)n1 [Cefepime] + CN1C2=CC=CC=C2N=C3C1=CC=CC3=O [Pyocyanin]
Details | Bliss interaction score
B. subtilis 168 | 0.0781
S. aureus DSM 20231 [1] | -0.078
S. aureus Newman [3] | 0.0752
S. pneumoniae D39V [2] | 0.126

Details | fitness
S. aureus DSM 20231 [4], first compound 0.125 µg/mL, partner 1.25 µg/mL | 0.854
S. aureus DSM 20231 [4], first compound 0.125 µg/mL, partner 2.5 µg/mL | 0.846
S. aureus DSM 20231 [4], first compound 0.125 µg/mL, partner 5 µg/mL | 0.639
S. aureus DSM 20231 [4], first compound 0.25 µg/mL, partner 1.25 µg/mL | 0.837
S. aureus DSM 20231 [4], first compound 0.25 µg/mL, partner 2.5 µg/mL | 0.831
S. aureus DSM 20231 [4], first compound 0.25 µg/mL, partner 5 µg/mL | 0.564
S. aureus DSM 20231 [4], first compound 0.5 µg/mL, partner 1.25 µg/mL | 0.786
S. aureus DSM 20231 [4], first compound 0.5 µg/mL, partner 5 µg/mL | 0.571
S. aureus Newman [6], first compound 0.125 µg/mL, partner 1.25 µg/mL | 0.85
S. aureus Newman [6], first compound 0.125 µg/mL, partner 2.5 µg/mL | 0.819
S. aureus Newman [6], first compound 0.125 µg/mL, partner 5 µg/mL | 0.56
S. aureus Newman [6], first compound 0.25 µg/mL, partner 1.25 µg/mL | 0.804
S. aureus Newman [6], first compound 0.25 µg/mL, partner 2.5 µg/mL | 0.783
S. aureus Newman [6], first compound 0.25 µg/mL, partner 5 µg/mL | 0.508
S. aureus Newman [6], first compound 0.5 µg/mL, partner 1.25 µg/mL | 0.748
S. aureus Newman [6], first compound 0.5 µg/mL, partner 2.5 µg/mL | 0.702
S. aureus Newman [6], first compound 0.5 µg/mL, partner 5 µg/mL | 0.535
S. pneumoniae D39V [5], first compound 0.007 µg/mL, partner 0.325 µg/mL | ≥ 1
S. pneumoniae D39V [5], first compound 0.007 µg/mL, partner 0.65 µg/mL | ≥ 1
S. pneumoniae D39V [5], first compound 0.007 µg/mL, partner 1.3 µg/mL | 0.963
S. pneumoniae D39V [5], first compound 0.014 µg/mL, partner 0.325 µg/mL | ≥ 1
S. pneumoniae D39V [5], first compound 0.014 µg/mL, partner 0.65 µg/mL | 0.997
S. pneumoniae D39V [5], first compound 0.014 µg/mL, partner 1.3 µg/mL | 0.961
S. pneumoniae D39V [5], first compound 0.028 µg/mL, partner 0.325 µg/mL | 0.946
S. pneumoniae D39V [5], first compound 0.028 µg/mL, partner 0.65 µg/mL | 0.974
S. pneumoniae D39V [5], first compound 0.028 µg/mL, partner 1.3 µg/mL | 0.943

fitness, S. pneumoniae D39V [5], one replicate
Details | first compound 0.0078 µg/mL | first compound 0.0155 µg/mL | first compound 0.031 µg/mL
partner 0.325 µg/mL | ≥ 1 | ≥ 1 | 0.786
partner 0.65 µg/mL | ≥ 1 | ≥ 1 | 0.907
